The record followed here is ChEMBL document CHEMBL4411344, “Synthesis and biological evaluation of new long-chain squaramides as anti-chagasic agents in the BALB/c mouse model” (Bioorg Med Chem, 2019).

The source made the active and inactive calls. The rule behind the calls is not given here. A value given as a limit tells only on which side of the number the result lay.

Data set [1] has as its system Trypanosoma cruzi. The data set is described as follows: Antitrypanosomal activity against Trypanosoma cruzi MHOM/Pe/2011/Arequipa DTU 5 trypomastigotes infected in Balb/c mouse assessed as reduction in parasitaemia reactivation at 20 mg/kg, po pretreated once daily for 5 consecutive days starting from day 10 post infection followed by cyclophosphamide-induced immunosuppression on day 100 post infection measured within 1 week post immunosuppression by Neubauer chamber method. The data set is classed as functional. The arrangement: scale not given: the % may be the effect or the level left.

Data set [2] concerns Trypanosoma cruzi. The data set is described as follows: Antitrypanosomal activity against Trypanosoma cruzi MHOM/Pe/2011/Arequipa DTU 5 trypomastigotes infected in Balb/c mouse assessed as reduction in parasitaemia reactivation at 20 mg/kg, po pretreated once daily for 5 consecutive days starting from day 75 post infection followed by cyclophosphamide-induced immunosuppression on day 100 post infection measured within 1 week post immunosuppression by Neubauer chamber method. Also on record: scale not given: the % may be the effect or the level left. The data set is classed as functional.

Data set [3] has as its system Trypanosoma cruzi. The experiment in a line: Antitrypanosomal activity against Trypanosoma cruzi MHOM/Pe/2011/Arequipa DTU 5 trypomastigotes infected in Balb/c mouse assessed as parasite-free heart at 20 mg/kg, po pretreated once daily for 5 consecutive days starting from day 10 post infection followed by cyclophosphamide-induced immunosuppression on day 100 post infection measured on day 127 post infection by PCR method. It is filed as functional.

Data set [4] has as its system Trypanosoma cruzi. The experiment in a line: Antitrypanosomal activity against Trypanosoma cruzi MHOM/Pe/2011/Arequipa DTU 5 trypomastigotes infected in Balb/c mouse assessed as parasite-free lungs at 20 mg/kg, po pretreated once daily for 5 consecutive days starting from day 10 post infection followed by cyclophosphamide-induced immunosuppression on day 100 post infection measured on day 127 post infection by PCR method. The data set is classed as functional.

Data set [5] relates to Trypanosoma cruzi. The data set is described as follows: Antitrypanosomal activity against Trypanosoma cruzi MHOM/Pe/2011/Arequipa DTU 5 trypomastigotes infected in Balb/c mouse assessed as parasite-free bone marrow at 20 mg/kg, po pretreated once daily for 5 consecutive days starting from day 75 post infection followed by cyclophosphamide-induced immunosuppression on day 100 post infection measured on day 127 post infection by PCR method. The data set is classed as functional.

Data set [6] has as its system Trypanosoma cruzi. The experiment in a line: Antitrypanosomal activity against Trypanosoma cruzi MHOM/Pe/2011/Arequipa DTU 5 trypomastigotes infected in Balb/c mouse assessed as parasite-free lungs at 20 mg/kg, po pretreated once daily for 5 consecutive days starting from day 75 post infection followed by cyclophosphamide-induced immunosuppression on day 100 post infection measured on day 127 post infection by PCR method. The data set is classed as functional.

In data set [7] the test system is Trypanosoma cruzi. The experiment in a line: Antitrypanosomal activity against Trypanosoma cruzi MHOM/Pe/2011/Arequipa DTU 5 trypomastigotes infected in Balb/c mouse assessed as parasite-free spleen at 20 mg/kg, po pretreated once daily for 5 consecutive days starting from day 75 post infection followed by cyclophosphamide-induced immunosuppression on day 100 post infection measured on day 127 post infection by PCR method. It is filed as functional.

The test system of data set [8] is Trypanosoma cruzi. The experiment in a line: Antitrypanosomal activity against Trypanosoma cruzi MHOM/Pe/2011/Arequipa DTU 5 trypomastigotes infected in Balb/c mouse assessed as parasite-free stomach at 20 mg/kg, po pretreated once daily for 5 consecutive days starting from day 75 post infection followed by cyclophosphamide-induced immunosuppression on day 100 post infection measured on day 127 post infection by PCR method. The data set is classed as functional.

In data set [9] the test system is Trypanosoma cruzi. The data set is described as follows: Antitrypanosomal activity against Trypanosoma cruzi MHOM/Pe/2011/Arequipa DTU 5 trypomastigotes infected in Balb/c mouse assessed as reduction in Ig-G level in serum at 20 mg/kg, po once daily for 5 consecutive days starting from day 10 post infection measured on day 16 post infection by ELISA. The data set is classed as functional, organism-based.

The subject of data set [10] is Trypanosoma cruzi. The data set is described as follows: Antitrypanosomal activity against Trypanosoma cruzi MHOM/Pe/2011/Arequipa DTU 5 trypomastigotes infected in Balb/c mouse assessed as reduction in Ig-G level in serum at 20 mg/kg, po once daily for 5 consecutive days starting from day 75 post infection measured on day 81 post infection by ELISA. The data set is classed as functional, organism-based.

The test system of data set [11] is Trypanosoma cruzi. The experiment in a line: Antitrypanosomal activity against Trypanosoma cruzi MHOM/Pe/2011/Arequipa DTU 5 trypomastigotes infected in Balb/c mouse assessed as reduction in splenomegaly at 20 mg/kg, po once daily for 5 consecutive days starting from day 10 post infection measured on day 127 post infection relative to control. The data set is classed as functional.

The test system of data set [12] is Trypanosoma cruzi. The data set is described as follows: Antitrypanosomal activity against Trypanosoma cruzi MHOM/Pe/2011/Arequipa DTU 5 epimastigotes assessed as change in mitochondrial membrane potential at IC25 after 72 hrs by Rho123 staining based flow cytometry relative to control. The data set is classed as functional. On the technique in general: In flow cytometry, cells or beads pass a laser one at a time.

Data set [13] relates to Trypanosoma cruzi. The data set is described as follows: Antitrypanosomal activity against Trypanosoma cruzi MHOM/Pe/2011/Arequipa DTU 5 epimastigotes assessed as reduction in DNA and RNA levels at IC25 after 72 hrs by acridine orange staining based flow cytometry relative to control. It is filed as functional.
The nature of data set [14]: Toxicity in Balb/c mouse assessed as death at 20 mg/kg, po once daily for 5 consecutive days starting from day 10 post infection. The data set is classed as organism-based. Particulars: in vivo.
The nature of data set [15]: Toxicity in Balb/c mouse assessed as death at 20 mg/kg, po once daily for 5 consecutive days starting from day 75 post infection. The data set is classed as organism-based. Particulars: in vivo.
The nature of data set [16]: Toxicity in Balb/c mouse assessed as reduction in body mass at 20 mg/kg, po once daily for 5 consecutive days starting from day 10 post infection relative to control. It is filed as organism-based. Also on record: scale not given: the % may be the effect or the level left. Particulars: in vivo.
Data set [17] in a line: Toxicity in Balb/c mouse assessed as reduction in body mass at 20 mg/kg, po once daily for 5 consecutive days starting from day 75 post infection relative to control. The data set is classed as organism-based. Also on record: scale not given: the % may be the effect or the level left. Particulars: in vivo.
Data set [18] in a line: Nephrotoxicity in Balb/c mouse infected with Trypanosoma cruzi MHOM/Pe/2011/Arequipa DTU 5 trypomastigotes assessed as decrease in serum urea level at 20 mg/kg, po once daily for 5 consecutive days starting from day 10 post infection measured on day 16 post infection relative to control. It is filed as toxicity, organism-based. The following applies: in vivo.
Data set [19] is described as follows: Nephrotoxicity in Balb/c mouse infected with Trypanosoma cruzi MHOM/Pe/2011/Arequipa DTU 5 trypomastigotes assessed as decrease in serum urea level at 20 mg/kg, po once daily for 5 consecutive days starting from day 10 post infection measured on day 127 post infection relative to control. It is filed as toxicity, organism-based. The following applies: in vivo.

A short description of data set [20]: Nephrotoxicity in Balb/c mouse infected with Trypanosoma cruzi MHOM/Pe/2011/Arequipa DTU 5 trypomastigotes assessed as decrease in serum urea level at 20 mg/kg, po once daily for 5 consecutive days starting from day 75 post infection measured on day 81 post infection relative to control. The data set is classed as toxicity, organism-based. The following applies: in vivo.

A short description of data set [21]: Nephrotoxicity in Balb/c mouse infected with Trypanosoma cruzi MHOM/Pe/2011/Arequipa DTU 5 trypomastigotes assessed as decrease in serum urea level at 20 mg/kg, po once daily for 5 consecutive days starting from day 75 post infection measured on day 127 post infection relative to control. The data set is classed as toxicity, organism-based. The following applies: in vivo.

Data set [22] is described as follows: Nephrotoxicity in Balb/c mouse infected with Trypanosoma cruzi MHOM/Pe/2011/Arequipa DTU 5 trypomastigotes assessed as decrease in serum uric acid level at 20 mg/kg, po once daily for 5 consecutive days starting from day 10 post infection measured on day 16 post infection relative to control. The data set is classed as toxicity, organism-based. Also on record: scale not given: the % may be the effect or the level left. Particulars: in vivo.

Data set [23] in a line: Hepatotoxicity in Balb/c mouse infected with Trypanosoma cruzi MHOM/Pe/2011/Arequipa DTU 5 trypomastigotes assessed as increase in ratio of serum AST to GOT level at 20 mg/kg, po once daily for 5 consecutive days starting from day 75 post infection measured on day 81 post infection relative to control. It is filed as toxicity, organism-based. Particulars: in vivo.
The nature of data set [24]: Hepatotoxicity in Balb/c mouse infected with Trypanosoma cruzi MHOM/Pe/2011/Arequipa DTU 5 trypomastigotes assessed as change in ratio of serum ALT to GPT level at 20 mg/kg, po once daily for 5 consecutive days starting from day 10 post infection measured on day 127 post infection by biochemical analysis (reference value: 49 U/L). It is filed as toxicity, organism-based. Particulars: in vivo.

Regarding `O=C(Cn1ccnc1[N+](=O)[O-])NCc1ccccc1` [BENZNIDAZOLE], the Activity with Trypanosoma cruzi [1] was determined as 75%; in the data set on Trypanosoma cruzi [2], 51%; with Trypanosoma cruzi [3], 33%; in the data set on Trypanosoma cruzi [4], 33%; in the data set on Trypanosoma cruzi [5] it was 55%; with Trypanosoma cruzi [6] it was 55%. Further, the Activity was 55% in the data set on Trypanosoma cruzi [7]; 55% in the data set with Trypanosoma cruzi [8]; -35.38% with Trypanosoma cruzi [12]; “Non-Toxic” in data set [14]; “Non-Toxic” in data set [15]; above 10% in data set [16]. Also, the Activity is above 10% in data set [17]; 20 to 30 mg/dL in data set [18]; 20 to 30 mg/dL in data set [19]; 20 to 30 mg/dL in data set [20]; 20 to 30 mg/dL in data set [21]; above 40% in data set [22]. Besides, the figures for the Activity in data set [23] and in data set [24] were 20 to 30 U/L and 49 U/L, respectively. In addition, the outcome in the data set on Trypanosoma cruzi [9] and in the data set on Trypanosoma cruzi [11] was Active. For the same compound, the outcome in the data set on Trypanosoma cruzi [10] was inactive. For the same compound, the “inhibition (INH)” value in the data set with Trypanosoma cruzi [13] is given as 22.38%.

With `CCCCCCNc1c(N(C)CCCN(C)C)c(=O)c1=O`, the outcome in the data set with Trypanosoma cruzi [1], in the data set with Trypanosoma cruzi [2], with Trypanosoma cruzi [3], in the data set on Trypanosoma cruzi [4], with Trypanosoma cruzi [5] and in the data set on Trypanosoma cruzi [6] was inactive. The result with Trypanosoma cruzi [7], with Trypanosoma cruzi [8], in the data set with Trypanosoma cruzi [9] and in the data set on Trypanosoma cruzi [10] was inactive. In the data set on Trypanosoma cruzi [11], the outcome was Active. Besides, the Activity was 4.69% in the data set with Trypanosoma cruzi [12]; “Non-Toxic” in data set [14]; “Non-Toxic” in data set [15]; above 10% in data set [16]; above 10% in [17]; 10 to 20 mg/dL in [18]. In addition, the Activity in [19] is 10 to 20 mg/dL; in data set [20], 10 to 20 mg/dL; in data set [21], 10 to 20 mg/dL; in [22] it was above 40%; in data set [23], 10 to 20 U/L; in data set [24], 49 U/L. For the same compound, the “inhibition (INH)” value with Trypanosoma cruzi [13] is listed as 31.13%.

Turning to `CCCCCCCCCCCCCCCCNc1c(N(C)CCCN(C)C)c(=O)c1=O`, the Activity is 26% in the data set on Trypanosoma cruzi [1]; 21% with Trypanosoma cruzi [2]; 67% with Trypanosoma cruzi [3]; 67% in the data set with Trypanosoma cruzi [4]; 78% with Trypanosoma cruzi [5]; 78% in the data set on Trypanosoma cruzi [6]. For the same compound, the Activity in the data set with Trypanosoma cruzi [7] is on record as 78%; in the data set with Trypanosoma cruzi [8] it was 78%; in the data set on Trypanosoma cruzi [11] it was 66%; in the data set with Trypanosoma cruzi [12], -80.61%; in data set [14] it was “Non-Toxic”; in data set [15] it was “Non-Toxic”. Besides, the Activity in data set [16] is above 10%; in data set [17], above 10%; in data set [18], 10 to 20 mg/dL; in data set [19] it was 10 to 20 mg/dL; in [20] it was 10 to 20 mg/dL; in [21], 10 to 20 mg/dL. Moreover, the Activity in [22] was above 40%; in [23], 10 to 20 U/L; in [24], 49 U/L. Besides, in the data set with Trypanosoma cruzi [9], the outcome was Active. For the same compound, in the data set on Trypanosoma cruzi [10], the result was inactive. Further, the “inhibition (INH)” value in the data set on Trypanosoma cruzi [13] was 49.05%.
